Results taken from patent US11524046B2, “Biofilm prevention, disruption and treatment with bacteriophage lysin” (priority 2012, dated 2022).
≈ marks a conversion by molar mass, not a printed value. Like-named read-outs stand apart in the source and are kept apart here. Marks after values point to notes of the source that are not given here.

Key:
[1] = test system: MRSA biofilms grown on catheters (strain ATCC BAA-42); experiment: Catheter biofilm residual CFU, BacTiter-Glo luciferase estimate
[2] = test system: biofilms of BAA-42 MRSA; experiment: Biofilm eradication in 24-well plates, crystal violet staining; format: cell-based, S. aureus; details: for change in biofilm, visually: 1000 ug/ml (1000×MIC), 4 hours or 6 hours; for biofilm clearance: 1000×MIC, 24 hours
[3] = test system: MRSA biofilms grown on catheters (strain ATCC BAA-42); experiment: Catheter biofilm eradication in vitro, methylene blue staining; details: 1000×MIC, 24 hours
[4] = test system: S. aureus strains; experiment: PlySs2 and antibiotic MIC, broth microdilution, 80% growth inhibition (CLSI M07-A9); format: cell-based; details: for MIC90: Staphylococcus aureus
[5] = test system: S. aureus biofilms; details: cited from earlier work; for effect on the established S. aureus biofilms: high concentrations: oxacillin 400, vancomycin 800, clindamycin 800 (printed ag/ml, tag/ml), 24 h
[6] = test system: ATCC BAA-42 MRSA biofilms; experiment: ClyS activity on biofilm in polystyrene plates, crystal violet staining; format: cell-based, S. aureus; details: 24 hours
[7] = test system: methicillin resistant S. aureus MRSA strain ATCC BAA-42; experiment: MIC by broth microdilution (CLSI M07-A9) against strain ATCC BAA-42; format: cell-based; details: ATCC BAA-42

CCCCCCCCCC(=O)N[C@@H](Cc1c[nH]c2ccccc12)C(=O)N[C@H](CC(N)=O)C(=O)N[C@@H](CC(=O)O)C(=O)N[C@@H]1C(=O)NCC(=O)N[C@@H](CCCN)C(=O)N[C@@H](CC(=O)O)C(=O)N[C@H](C)C(=O)N[C@@H](CC(=O)O)C(=O)NCC(=O)N[C@H](CO)C(=O)N[C@@H]([C@H](C)CC(=O)O)C(=O)N[C@@H](CC(=O)c2ccccc2N)C(=O)O[C@@H]1C [Daptomycin, daptomycin]
CFU reduction ([1]; 1×MIC, 24 hours): no CFU reduction | CFUs remaining in catheter biofilm ([1]; 1000× MIC, 24 hours, from 100 million): 1 million | CFU reduction ([1]; 1000×MIC, 24 hours): two log reduction | removal of biofilm bacteria ([1]; up to concentrations of 5000×MIC): completely ineffective | change in biofilm, visually [2]: No change | biofilm clearance [2]: no biofilm clearance | biofilm dissolution ([2]; concentrations up to 10×MIC, up to 24 hours): no dissolution | biofilm clearance from the catheter [3]: did not remove significant biofilm | MIC90 ([4]; DRSA (n = 8), read-out: MIC90): 9.9 µM (≈ 16 µg/mL) | MIC90 ([4]; LRSA (n = 5), read-out: MIC90): 0.6 µM (≈ 0.972 µg/mL) | MIC90 ([4]; MRSA, MRSA (n = 45), read-out: MIC90): 0.6 µM (≈ 0.972 µg/mL) | MIC90 ([4]; MSSA, MSSA (n-28), read-out: MIC90): 0.6 µM (≈ 0.972 µg/mL) | MIC90 ([4]; VISA, VISA (n = 10), read-out: MIC90): 4.9 µM (≈ 7.94 µg/mL) | MIC90 ([4]; VRSA, VRSA (n = 14), read-out: MIC90): 0.6 µM (≈ 0.972 µg/mL)

CC(=O)NC[C@H]1CN(c2ccc(N3CCOCC3)c(F)c2)C(=O)O1 [Linezolid, linezolid]
change in biofilm, visually [2]: No change | biofilm clearance [2]: no biofilm clearance | MIC50/90 ([4]; DRSA (n = 8)): 2 | MIC50/90 [uM] ([4]; DRSA (n = 8)): 5.7 µM (≈ 1.92 µg/mL) | MIC50/90 ([4]; LRSA (n = 5)): >64 | MIC50/90 [uM] ([4]; LRSA (n = 5)): >183 µM | MIC50/90 ([4]; MRSA (n = 45)): 2 | MIC50/90 [uM] ([4]; MRSA (n = 45)): 5.7 µM (≈ 1.92 µg/mL) | MIC50/90 ([4]; MSSA (n-28)): 2 | MIC50/90 [uM] ([4]; MSSA (n-28)): 5.7 µM (≈ 1.92 µg/mL) | MIC50/90 ([4]; VISA (n = 10)): 2 | MIC50/90 [uM] ([4]; VISA (n = 10)): 5.7 µM (≈ 1.92 µg/mL) | MIC50/90 ([4]; VRSA (n = 14)): 2 | MIC50/90 [uM] ([4]; VRSA (n = 14)): 5.7 µM (≈ 1.92 µg/mL)

Cc1onc(-c2ccccc2)c1C(=O)N[C@@H]1C(=O)N2[C@@H]1SC(C)(C)[C@@H]2C(=O)O [Oxacillin, oxacillin]
effect on the established S. aureus biofilms [5]: no effect | MIC50/90 ([4]; MRSA (n = 45)): >4* | MIC50/90 [uM] ([4]; MRSA (n = 45)): >10.0 µM

CN[C@H](CC(C)C)C(=O)N[C@H]1C(=O)N[C@@H](CC(N)=O)C(=O)N[C@H]2C(=O)N[C@H]3C(=O)N[C@H](C(=O)N[C@H](C(=O)O)c4cc(O)cc(O)c4-c4cc3ccc4O)[C@H](O)c3ccc(c(Cl)c3)Oc3cc2cc(c3O[C@@H]2O[C@H](CO)[C@@H](O)[C@H](O)[C@H]2O[C@H]2C[C@](C)(N)[C@H](O)[C@H](C)O2)Oc2ccc(cc2Cl)[C@H]1O [Vancomycin, vancomycin]
effect on the established S. aureus biofilms [5]: no effect | change in biofilm, visually [2]: No change | biofilm clearance [2]: no biofilm clearance | MIC90 [4]: 0.7 µM (≈ 1.01 µg/mL) | MIC90 ([4]; MRSA): 0.7 µM (≈ 1.01 µg/mL) | MIC90 ([4]; MSSA): 0.7 µM (≈ 1.01 µg/mL) | MIC90 ([4]; VISA): 2.7 µM (≈ 3.91 µg/mL) | MIC90 ([4]; VRSA): > 10.6 µM

Lysostaphin: gene product of Staphylococcus simulans degrading the polyglycine crosslinks of the S. aureus cell wall
effect on S. aureus biofilms in vitro on plastic and glass surfaces ([5]; lysostaphin-sensitive S. aureus): disrupted the extracellular matrix

B1: ClyS: chimeric lysin with activity against Staphylococci, detailed in WO 2010/002959; SEQ ID NO: 5 (protein, listed as Staphylococcus aureus)
chain: METLKQAESYIKSKVNTGTDFDGLYGYQCMDLAVDYIYHVTDGKIRMWGNAKDAINNSFGGTATVYKNYPAFRPKYGDVVVWTTGNFATYGHIAIVTNPDPYGDLQYVTVLEQNWNGNGIYKTELATIRTHDYTGITHFIRPNFATESSVKKKDTKKKPKPSNRDGLNKDKIVYDRTNINYNMVLQGKSASKITVGSKAPYNLKWSKGAYFNAKIDGLGATSATRYGDNRTNYRFDVGQAVYAPGTLIYVFEIIDGWCRIYWNNHNEWIWHERLIVKEVF
biofilm dispersal ([6]; 0.032 μg/ml): somewhat | biofilm dispersal ([6]; 0.32 μg/ml): Reduction in stained biofilm | biofilm dispersal ([6]; 3.2 μg/ml (0.1× MIC)): effectively disperses | biofilm dispersal ([6]; 32 μg/ml (1×MIC)): effectively disperses | MIC of the ClyS lysin [7]: 32 µg/mL
